Test results as given in paper PMC5041982, “Small-molecule inhibition of STAT3 in radioresistant head and neck squamous cell carcinoma” (Oncotarget, 2016).
Several values for one entry are separate records, joined by “and”; a condition that tells them apart may be missing. Equal values may be shown once.

Assays:
[1] = target: STAT3 (Homo sapiens, UniProt P40763); assay: STAT3/pY-peptide binding surface plasmon resonance (SPR) assay; conditions: for Inhibition of STAT3 binding to pY-peptide compared with C188: SPR; for IC50: STAT3 200 nM, EGFR pY1068 dodecapeptide, mean, n ≥ 2, read-out: pY-Peptide Binding (SPR) IC50
Chain of STAT3 (P40763 whole entry, species assumed): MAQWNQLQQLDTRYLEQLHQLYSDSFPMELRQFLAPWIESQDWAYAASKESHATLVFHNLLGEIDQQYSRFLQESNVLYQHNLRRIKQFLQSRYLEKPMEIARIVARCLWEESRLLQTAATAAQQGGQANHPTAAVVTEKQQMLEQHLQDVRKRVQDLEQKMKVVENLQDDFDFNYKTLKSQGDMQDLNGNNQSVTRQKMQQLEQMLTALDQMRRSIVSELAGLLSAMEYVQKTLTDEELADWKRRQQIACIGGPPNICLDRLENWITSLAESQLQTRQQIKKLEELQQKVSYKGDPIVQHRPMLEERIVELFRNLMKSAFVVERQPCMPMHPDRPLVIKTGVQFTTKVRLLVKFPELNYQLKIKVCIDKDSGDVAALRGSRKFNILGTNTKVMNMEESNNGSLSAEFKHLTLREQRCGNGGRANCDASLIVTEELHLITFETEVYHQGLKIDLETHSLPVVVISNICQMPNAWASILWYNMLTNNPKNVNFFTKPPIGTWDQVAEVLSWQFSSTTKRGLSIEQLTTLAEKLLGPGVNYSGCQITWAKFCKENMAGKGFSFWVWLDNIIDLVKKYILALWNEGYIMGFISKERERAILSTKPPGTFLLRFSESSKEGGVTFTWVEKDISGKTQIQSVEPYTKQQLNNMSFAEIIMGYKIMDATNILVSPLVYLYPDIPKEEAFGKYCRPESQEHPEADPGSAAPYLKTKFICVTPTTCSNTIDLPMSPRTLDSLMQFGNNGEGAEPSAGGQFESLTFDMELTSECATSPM
Method: The equilibrium binding levels obtained ± compound were normalized (resonance obtained in the presence of compound ÷ the resonance obtained in the absence of compound × 100) and plotted against Log [nM] […] B. Inhibition of ligand-stimulated STAT phosphorylation, measured by phosphoflow. Serum-starved (1 hour) Kasumi-1 cells, pre-incubated with compound/DMSO (1 hour), were treated with G-CSF (10 ng/ml, 15 min, left two panels) or IFN-γ (10ng/ml, 15 min, right panel). Cells were permeabilized and stained with Alexa647-pSTAT3, and PE-pSTAT1 antibodies and analyzed on BD LSR2. FCS files were uploaded to Cytobank for pSTAT3 and pSTAT1 quantitation. Histograms depicting pSTAT3 and pSTAT1 levels are shown. C. Mean fluorescence (pSTAT3/1) levels were plotted as function the Log [M] compound, and IC50 calculated using GraphPad. […] D. Inhibition of ligand-stimulated STAT phosphorylation, measured by Luminex. Serum-starved (1 hour) Kasumi-1 cells, pre-incubated with compound/DMSO (0/0.1/0.3/1/3/10/100 μM, 1 hour), were treated with G-CSF (10 ng/ml, 15′). Total protein extracts of cells were assayed for pSTAT3, pSTAT1, and GAPDH levels by Luminex. GAPDH-normalized pSTAT3 or pSTAT1 values were divided by this ratio for untreated cells and expressed in percentage. These values were plotted as a function of Log [M] compound, and IC50 values calculated using GraphPad. […]
3-D pharmacophore sorting used to evaluate the effect of each compound on STAT3 binding. Responses were normalized by dividing the […]
fingerprint screening were converted into 3-D structures compounds at 2 min and multiplying by 100. IC values […]
for analysis as described below. were determined by plotting % maximum response as a 3-D pharmacophore generation function of log concentration of compound and fitting the Each molecular chemical feature, including experimental points to a competitive binding model using hydrogen bond donor, hydrogen bond acceptor, positive a four parameter logistic equation: R = Rhigh − (Rhigh − R low)/ (1 + conc/A1)^A2, where R = percent response at and negative ionizable group, and hydrophobic region, inhibitor concentration, R = percent response with no was generated using the LigandScout application compound, R= percent response at highest compound high framework and projected into 3-D space. concentration, A2 = fitting parameter (slope) and A1 = low Feature-pairing IC50 (BIAevaluation Software version 4.1). The inhibition Each chemical feature was converted into distance constant (Ki) was derived from the Cheng-Prusoff bin and the complete set of distance bins used to construct equation Ki=IC50/(1+[C]/Kd) as used by Halling et al a cost matrix. The most favorable pairing based on cost where C stands for STAT3 concentration used in the SPR matrix was identified. assay and Kd denotes the dissociation constant for STAT3 3-D pharmacophore transformation binding to its phosphorylated EGFR ligand in the SPR […]
STAT3/pY-peptide binding assay and total protein extracted from cell pellets. […]
STAT3 binding assays were performed at 25 °C (Millipore, Danvers, MA) coupled to antibody against

[2] = target: T1, pSTAT1 (Tyr-701) (Homo sapiens, UniProt P42224); assay: Phosphoflow, IFN-γ-induced pSTAT1 in Kasumi-1 cells; assay type: cell-based; conditions: Kasumi-1, IFN-γ 10 ng/ml 15 min; mean, n ≥ 2; read-out: Ligand Induced Phosphorylation (Phosphoflow) pSTAT1 (IFN-γ) IC50
T1 construct: endogenous in cells; host or cells: Kasumi-1
T1 sequence (P42224 1-750): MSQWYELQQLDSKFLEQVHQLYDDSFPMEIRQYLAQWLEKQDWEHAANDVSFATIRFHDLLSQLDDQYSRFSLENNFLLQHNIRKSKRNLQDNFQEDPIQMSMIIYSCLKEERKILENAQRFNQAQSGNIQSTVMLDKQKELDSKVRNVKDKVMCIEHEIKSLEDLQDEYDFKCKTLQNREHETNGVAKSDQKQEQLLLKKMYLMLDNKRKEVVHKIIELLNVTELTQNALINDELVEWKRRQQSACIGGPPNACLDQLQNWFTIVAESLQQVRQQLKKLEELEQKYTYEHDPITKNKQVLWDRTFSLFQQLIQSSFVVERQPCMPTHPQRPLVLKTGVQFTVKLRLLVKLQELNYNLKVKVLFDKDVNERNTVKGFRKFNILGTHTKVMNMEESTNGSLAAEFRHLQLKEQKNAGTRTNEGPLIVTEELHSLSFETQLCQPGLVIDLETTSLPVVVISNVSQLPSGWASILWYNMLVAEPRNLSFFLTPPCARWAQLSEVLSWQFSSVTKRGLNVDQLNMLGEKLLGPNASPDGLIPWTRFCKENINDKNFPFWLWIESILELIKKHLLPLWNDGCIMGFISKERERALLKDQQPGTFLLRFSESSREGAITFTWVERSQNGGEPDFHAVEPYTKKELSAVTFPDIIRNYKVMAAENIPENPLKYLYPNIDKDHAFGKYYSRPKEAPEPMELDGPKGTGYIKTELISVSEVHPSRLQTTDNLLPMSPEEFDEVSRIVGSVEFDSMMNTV
Method: (§1) The equilibrium binding levels obtained ± compound were normalized (resonance obtained in the presence of compound ÷ the resonance obtained in the absence of compound × 100) and plotted against Log [nM] […] B. Inhibition of ligand-stimulated STAT phosphorylation, measured by phosphoflow. Serum-starved (1 hour) Kasumi-1 cells, pre-incubated with compound/DMSO (1 hour), were treated with G-CSF (10 ng/ml, 15 min, left two panels) or IFN-γ (10ng/ml, 15 min, right panel). Cells were permeabilized and stained with Alexa647-pSTAT3, and PE-pSTAT1 antibodies and analyzed on BD LSR2. FCS files were uploaded to Cytobank for pSTAT3 and pSTAT1 quantitation. Histograms depicting pSTAT3 and pSTAT1 levels are shown. C. Mean fluorescence (pSTAT3/1) levels were plotted as function the Log [M] compound, and IC50 calculated using GraphPad. […] D. Inhibition of ligand-stimulated STAT phosphorylation, measured by Luminex. Serum-starved (1 hour) Kasumi-1 cells, pre-incubated with compound/DMSO (0/0.1/0.3/1/3/10/100 μM, 1 hour), were treated with G-CSF (10 ng/ml, 15′). Total protein extracts of cells were assayed for pSTAT3, pSTAT1, and GAPDH levels by Luminex. GAPDH-normalized pSTAT3 or pSTAT1 values were divided by this ratio for untreated cells and expressed in percentage. These values were plotted as a function of Log [M] compound, and IC50 values calculated using GraphPad.
(§2) Phosphoflow analysis was done as described in Xu et al. Briefly, Kasumi-1 cells, were serum-starved, pre-treated with compound or DMSO (1 hour, RT) and then stimulated with 20 μl of GCSF (10 ng/ml) for 15 minutes at 37°C. The cells were then permeabilized and stained with Alexa647-pSTAT3, Alexa488-pSTAT5 and PE-pSTAT1 antibodies and analyzed using the BD LSR2. FCS files were exported and uploaded to Cytobank for determination of phosphoproteins as earlier. Gating was done on live, single cells and then gates selected for positive ligand-activated pSTAT3 and pSTAT1. IC50 values were calculated using the GraphPad Prism.

[3] = target: T2, pSTAT3 (Tyr-705) (Homo sapiens, UniProt P40763); assay: Phosphoflow, G-CSF-induced STAT3 phosphorylation in Kasumi-1 cells; assay type: cell-based; conditions: Kasumi-1, G-CSF 10 ng/ml 15 min; mean, n ≥ 2; read-out: Ligand Induced Phosphorylation (Phosphoflow) pSTAT3 (GCSF) IC50
T2 construct: endogenous in cells; host or cells: Kasumi-1
T2 sequence (P40763 whole entry): as the sequence (P40763 whole entry, species assumed) above
Method: as §1, §2

[4] = system: pSTAT5; assay: Phosphoflow, G-CSF-induced pSTAT5 in Kasumi-1 cells; assay type: cell-based; conditions: mean, n ≥ 2, read-out: Ligand Induced Phosphorylation (Phosphoflow) pSTAT5 (G-CSF) IC50
Method: as §2

Inhibition of STAT3 binding to pY-peptide compared with C188 [1] | IC50 [1] | IC50 [2] | IC50 [3] | IC50 [4] | Structure (SMILES)
improved inhibition | 5.5 ± 2.1 µM | 50.5 ± 53 µM | 16.2 ± 24.1 µM | 1.5 µM | O=[N+]([O-])c1cccc(S(=O)(=O)Nc2cc(Sc3nc4ccccc4s3)c(O)c3ccccc23)c1 [Compound C188-1]
 | 20 ± 9.9 µM | 51 µM | 29.8 ± 25.9 µM | 35 ± 29.7 µM | Cc1ccc(S(=O)(=O)Nc2cc(Sc3nc4ccccc4s3)c(O)c3ccccc23)c(C)c1 [Compound C188-2]
 | 17.3 ± 8.5 µM | 34.5 ± 10.6 µM | 21.6 ± 11.1 µM | 21 µM | Cc1cc(C)c(S(=O)(=O)Nc2cc(C(C(=O)OC(C)C)C(=O)C(F)(F)F)c(O)c3ccccc23)c(C)c1 (centres unmarked) [Compound C188-3]
 | 21.5 ± 21.9 µM | 29 µM | 11 ± 1.4 µM |  | CC(C)OC(=O)C(C(=O)C(F)(F)F)c1cc(NS(=O)(=O)c2ccc(Br)cc2)c2ccccc2c1O (centres unmarked) [Compound C188-4]
 | 11.5 ± 7.8 µM |  | 27 ± 1.4 µM | > 300 µM | CC(C)OC(=O)C(C(=O)C(F)(F)F)c1cc(NS(=O)(=O)c2ccc(Cl)cc2)c2ccccc2c1O (centres unmarked) [Compound C188-5]
 | 16 ± 15.6 µM |  | 23.5 ± 6.4 µM |  | CC(C)OC(=O)C(C(=O)C(F)(F)F)c1cc(NS(=O)(=O)c2ccccc2)c2ccccc2c1O (centres unmarked) [Compound C188-6]
activity similar to C188 | 8 ± 2.8 µM | > 300 µM | > 300 µM | > 300 µM | Cc1cc(C)c(S(=O)(=O)Nc2cc(Cl)c(O)c3ccccc23)cc1C [Compound C188-10]
 | 55 µM and 54.5 µM | > 300 µM | > 300 µM | > 300 µM | CC(=O)c1c(C)oc2c1cc(NS(=O)(=O)c1cc(C)ccc1C)c1ccccc12 [Compound C188-11]
 | > 300 µM | > 300 µM | > 300 µM | > 300 µM | CC(=O)Nc1c([N+](=O)[O-])cc(NS(=O)(=O)c2ccccc2)c2ccccc12 [Compound C188-12]
 | 280 ± 41 µM | > 300 µM |  | > 300 µM | CC(=O)Nc1c([N+](=O)[O-])cc(N(C(C)=O)S(=O)(=O)c2ccccc2)c2ccccc12 [Compound C188-13]
activity similar to C188 | 8.7 ± 9.1 µM | 57 µM | 40.3 ± 50.8 µM | 10 µM | Cc1cc(C)c(C)c(S(=O)(=O)Nc2cc(SCC(=O)O)c(O)c3ccccc23)c1C [Compound C188-14]
improved inhibition | 4 µM | > 300 µM |  | > 300 µM | O=S(=O)(Nc1cc(Sc2ccccc2)c(O)c2ccccc12)c1ccc(F)cc1 [Compound C188-16]
improved inhibition | 3.5 ± 2.1 µM | > 300 µM | > 300 µM |  | O=S(=O)(Nc1cc(Sc2nc[nH]n2)c(O)c2ccccc12)c1ccc(F)cc1 [Compound C188-17]
improved inhibition | 3.5 ± 0.7 µM | > 300 µM | > 300 µM | > 300 µM | Cc1cc(C)c(S(=O)(=O)Nc2cc(Sc3nc[nH]n3)c(O)c3ccccc23)cc1C [Compound C188-18]
improved inhibition | 5.5 ± 4.9 µM | > 300 µM | > 300 µM | > 300 µM | COc1ccc(OC)c(S(=O)(=O)Nc2cc(Sc3ccccc3)c(O)c3ccccc23)c1 [Compound C188-19]
 | 27 ± 25.5 µM | 9 µM | > 300 µM | > 300 µM | CCOC(=O)c1c(C)oc2c1cc(NS(=O)(=O)c1cccc3cccnc13)c1ccccc12 [Compound C188-20]
 | > 300 µM | > 300 µM | 15 ± 17 µM |  | O=S(=O)(Nc1ccc(O)c2ccccc12)c1ccccc1 [Compound C188-21]
 | 89 ± 2.8 µM |  |  | > 300 µM | Cc1ccc(S(=O)(=O)Nc2cc3c4c(oc3c3ccccc23)CCC(C(C)(C)C)C4)c(C)c1 (centres unmarked) [Compound C188-26]
 | > 300 µM | > 300 µM |  | > 300 µM | O=S(=O)(Nc1ccc(O)c2ccccc12)c1ccc(F)cc1 [Compound C188-27]
 | 71 ± 33.9 µM | 10 µM |  | > 300 µM | CC(=O)Oc1c(Br)cc(N(C(C)=O)S(=O)(=O)c2ccc(C)cc2)c2ccccc12 [Compound C188-28]
 | 27.5 ± 10.6 µM | > 300 µM |  | > 300 µM | COCc1oc2c(cc(NS(=O)(=O)c3ccc(F)cc3)c3ccccc32)c1C(=O)OC [Compound C188-29]
 | 25.5 ± 6.4 µM | > 300 µM |  | > 300 µM | CCOC(=O)c1c(C)oc2c1cc(NS(=O)(=O)c1ccc(C(C)(C)C)cc1)c1ccccc12 [Compound C188-35]
 | 18.5 ± 9.2 µM | > 300 µM |  |  | COc1ccc(S(=O)(=O)Nc2cc(Sc3cccc4cccnc34)c(O)c3ccccc23)cc1 [Compound C188-38]
